Laboratory results taken from patent publication US9409905B2, “Antibacterial compounds and methods for use” (PTC THERAPEUTICS, INC., priority 2011, dated 2016).
≈ marks a conversion by molar mass, not a printed value.

How the values were obtained:
[1] = tested on: E. coli ELZ4251; experiment: Antibacterial activity, MIC, multi-drug resistant clinical isolate (Table 3); type: cell-based; details: Escherichia coli
Outline: (§1)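 Broth microdilution assay; MIC reported in μg/mL as the lowest drug concentration preventing macroscopically visible growth under test conditions.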

[2] = tested on: E. coli ELZ4000; experiment: as above; type: cell-based; details: Escherichia coli, ELZ4000, read-out: MIC ELZ4000
Outline: as §1

[3] = tested on: E. coli 25922; experiment: Antibacterial activity, microbroth dilution MIC (Table 1); type: cell-based, Escherichia coli; details: Escherichia coli; microbroth dilution; control Gram-negative E. coli 25922 strain; read-out: MIC, 25922
Outline: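 Using broth microdilution, MIC endpoints (μg/mL) mark where visible growth no longer appears; the panel spans sensitive and control Gram-negative strains plus a Gram-positive strain.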

[4] = tested on: K. pneumoniae MXX1232; experiment: Antibacterial activity, MIC, resistant strain (Table 4); type: cell-based; details: Klebsiella pneumoniae, MXX1232; resistant K. pneumoniae MMX1232, multi-drug resistant clinical isolate; read-out: MIC, MMX1232
Outline: (§2)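 Values are MICs in μg/mL, read as the lowest compound concentration at which no growth is visible by eye. They come from a microbroth dilution method.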

[5] = tested on: A. baumannii MXX2240; experiment: as above; type: cell-based; details: Acinetobacter baumannii, MXX2240; resistant A. baumannii MMX2240, multi-drug resistant clinical isolate; read-out: MIC, MMX2240
Outline: as §2

[6] = tested on: E. coli LZ3111; experiment: Antibacterial activity, MIC, quinolone resistant strain (Table 2); type: cell-based; details: Escherichia coli, LZ3111, read-out: MIC LZ3111
Outline: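 Microbroth dilution method; MIC (μg/mL) is the lowest drug concentration preventing macroscopically visible growth under test conditions.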

[7] = tested on: Pseudomonas aeruginosa (P. aeruginosa) 27853; experiment: Antibacterial activity, MIC (Table 5); type: cell-based; details: P. aeruginosa 27853, read-out: MIC, 27853
Outline: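 Activity was measured by microbroth dilution. The MIC, in μg/mL, is the lowest drug concentration that prevents macroscopically visible growth under the test conditions.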

[8] = tested on: Acinetobacter baumannii (A. baumannii) BAA747; experiment: Antibacterial activity, MIC (Table 4); type: cell-based; details: A. baumannii BAA747, read-out: MIC, BAA747
Outline: as §2

[9] = tested on: Klebsiella pneumoniae (K. pneumoniae) 35657; experiment: Antibacterial activity, MIC (Table 4); type: cell-based; details: K. pneumoniae 35657, read-out: MIC, 35657
Outline: as §2

[10] = tested on: Escherichia coli (E. coli) BAS849; experiment: Antibacterial activity, microbroth dilution MIC (Table 1); type: cell-based; details: microbroth dilution, super sensitive Gram-negative E. coli BAS849, read-out: MIC, BAS849
Outline: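 Broth microdilution against S. aureus 29213, E. coli 25922 and hypersensitive E. coli BAS849. MIC in μg/mL is the lowest drug concentration preventing macroscopically visible growth under test conditions.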

[11] = tested on: Staphylococcus aureus (S. aureus) 29213; experiment: as above; type: cell-based; details: microbroth dilution, Gram-positive S. aureus 29213, read-out: MIC, 29213
Outline: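 Microbroth dilution was used. MIC, in μg/mL, is the lowest drug concentration preventing macroscopically visible growth under the test conditions.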

[12] = tested on: Neisseria meningitidis (N. meningitidis) 13090; experiment: Antibacterial activity, MIC (Table 8); type: cell-based
Source text: The antibacterial activity from a microbroth dilution method may be presented as the minimum inhibitory concentration (MIC in μg/mL). The MIC value is the lowest concentration of drug which prevents macroscopically visible growth under test conditions.
Antibacterial activity of test compounds against the Gram-negative bacteria Haemophilus influenzae (H. influenzae) 49247 is shown in Table 6, Moraxella catarrhalis (M. catarrhalis) 25238 is shown in Table 7 and Neisseria meningitidis (N. meningitidis) 13090 is shown in Table 8.

Compound	MIC [1] [mg/L]	MIC [2] [mg/L]	MIC [3] [mg/L]	MIC [4] [mg/L]	MIC [5] [mg/L]	MIC [6] [mg/L]	MIC [7] [mg/L]	MIC [8] [mg/L]	MIC [9] [mg/L]	MIC [10] [mg/L]	MIC [11] [mg/L]	MIC [12] [mg/L]
CCc1cc(C(=O)O)c(=O)[nH]c1-c1ccc2c(c1)cc(CN(C)C)n2C [Cpd 122, 6-(2-((dimethylamino)methyl)-1-methyl-1H-indol-5-yl)-5-ethyl-2-oxo-1,2-dihydropyridine-3-carboxylic acid]	12.5 to 150 (≈ 35.4 to 424 µM)	12.5 to 150 (≈ 35.4 to 424 µM)	< 1	12.5 to 150 (≈ 35.4 to 424 µM)	12.5 to 150 (≈ 35.4 to 424 µM)	12.5 to 150 (≈ 35.4 to 424 µM)	3.5 to 12.5 (≈ 9.9 to 35.4 µM)	< 1	< 1	< 1	12.5 to 150 (≈ 35.4 to 424 µM)	< 1
CCc1cc(C(=O)O)c(=O)[nH]c1-c1ccc2c(c1)cc(CN1CCCC1)n2C [Cpd 124, 5-ethyl-6-(1-methyl-2-(pyrrolidin-1-ylmethyl)-1H-indol-5-yl)-2-oxo-1,2-dihydropyridine-3-carboxylic acid]	12.5 to 150 (≈ 32.9 to 395 µM)	12.5 to 150 (≈ 32.9 to 395 µM)	< 1	12.5 to 150 (≈ 32.9 to 395 µM)	12.5 to 150 (≈ 32.9 to 395 µM)	12.5 to 150 (≈ 32.9 to 395 µM)	3.5 to 12.5 (≈ 9.22 to 32.9 µM)	< 1	1 to 3.5 (≈ 2.64 to 9.22 µM)	< 1	12.5 to 150 (≈ 32.9 to 395 µM)	< 1
CCc1cc(C(=O)O)c(=O)[nH]c1-c1ccc2c(c1)cc(CN1CCCCC1)n2C [Cpd 133, 5-ethyl-6-(1-methyl-2-(piperidin-1-ylmethyl)-1H-indol-5-yl)-2-oxo-1,2-dihydropyridine-3-carboxylic acid]	12.5 to 150 (≈ 31.8 to 381 µM)	12.5 to 150 (≈ 31.8 to 381 µM)	< 1	12.5 to 150 (≈ 31.8 to 381 µM)	12.5 to 150 (≈ 31.8 to 381 µM)	12.5 to 150 (≈ 31.8 to 381 µM)	12.5 to 150 (≈ 31.8 to 381 µM)	1 to 3.5 (≈ 2.54 to 8.89 µM)	< 1	< 1	12.5 to 150 (≈ 31.8 to 381 µM)	–
CCc1cc(C(=O)O)c(=O)[nH]c1-c1ccc2c(c1)cc1n2CCC1N(C)C (stereo not shown) [Cpd 152, 6-(1-(dimethylamino)-2,3-dihydro-1H-pyrrolo[1,2-a]indol-7-yl)-5-ethyl-2-oxo-1,2-dihydropyridine-3-carboxylic acid]	12.5 to 150 (≈ 34.2 to 410 µM)	12.5 to 150 (≈ 34.2 to 410 µM)	< 1	12.5 to 150 (≈ 34.2 to 410 µM)	12.5 to 150 (≈ 34.2 to 410 µM)	12.5 to 150 (≈ 34.2 to 410 µM)	12.5 to 150 (≈ 34.2 to 410 µM)	3.5 to 12.5 (≈ 9.58 to 34.2 µM)	< 1	< 1	12.5 to 150 (≈ 34.2 to 410 µM)	–
CCc1cc(C(=O)O)c(=O)[nH]c1-c1ccc2c(c1)cc(CCN1CCCC1)n2C [Cpd 159, 5-ethyl-6-(1-methyl-2-(2-(pyrrolidin-1-yl)ethyl)-1H-indol-5-yl)-2-oxo-1,2-dihydropyridine-3-carboxylic acid]	12.5 to 150 (≈ 31.8 to 381 µM)	12.5 to 150 (≈ 31.8 to 381 µM)	< 1	12.5 to 150 (≈ 31.8 to 381 µM)	12.5 to 150 (≈ 31.8 to 381 µM)	12.5 to 150 (≈ 31.8 to 381 µM)	3.5 to 12.5 (≈ 8.89 to 31.8 µM)	3.5 to 12.5 (≈ 8.89 to 31.8 µM)	< 1	< 1	12.5 to 150 (≈ 31.8 to 381 µM)	–
CCc1cc(C(=O)O)c(=O)[nH]c1-c1ccc2c(c1)cc(CCN1CCCCC1)n2C [Cpd 160, 5-ethyl-6-(1-methyl-2-(2-(piperidin-1-yl)ethyl)-1H-indol-5-yl)-2-oxo-1,2-dihydropyridine-3-carboxylic acid]	12.5 to 150 (≈ 30.7 to 368 µM)	12.5 to 150 (≈ 30.7 to 368 µM)	< 1	12.5 to 150 (≈ 30.7 to 368 µM)	12.5 to 150 (≈ 30.7 to 368 µM)	12.5 to 150 (≈ 30.7 to 368 µM)	12.5 to 150 (≈ 30.7 to 368 µM)	1 to 3.5 (≈ 2.45 to 8.59 µM)	< 1	< 1	12.5 to 150 (≈ 30.7 to 368 µM)	–
CCc1cc(C(=O)O)c(=O)[nH]c1-c1ccc2c(c1)cc(CCN(C)C)n2C [Cpd 161, 6-(2-(2-(dimethylamino)ethyl)-1-methyl-1H-indol-5-yl)-5-ethyl-2-oxo-1,2-dihydropyridine-3-carboxylic acid]	12.5 to 150 (≈ 34 to 408 µM)	12.5 to 150 (≈ 34 to 408 µM)	< 1	12.5 to 150 (≈ 34 to 408 µM)	12.5 to 150 (≈ 34 to 408 µM)	12.5 to 150 (≈ 34 to 408 µM)	3.5 to 12.5 (≈ 9.53 to 34 µM)	3.5 to 12.5 (≈ 9.53 to 34 µM)	< 1	< 1	12.5 to 150 (≈ 34 to 408 µM)	–
CCc1c(-c2ccc3c(c2)cc(CN2CCCC2)n3C)[nH]c(=O)c(C(=O)O)c1O [Cpd 164, 5-ethyl-4-hydroxy-6-(1-methyl-2-(pyrrolidin-1-ylmethyl)-1H-indol-5-yl)-2-oxo-1,2-dihydropyridine-3-carboxylic acid]	12.5 to 150 (≈ 31.6 to 379 µM)	12.5 to 150 (≈ 31.6 to 379 µM)	< 1	12.5 to 150 (≈ 31.6 to 379 µM)	3.5 to 12.5 (≈ 8.85 to 31.6 µM)	3.5 to 12.5 (≈ 8.85 to 31.6 µM)	3.5 to 12.5 (≈ 8.85 to 31.6 µM)	< 1	3.5 to 12.5 (≈ 8.85 to 31.6 µM)	< 1	3.5 to 12.5 (≈ 8.85 to 31.6 µM)	–
CCc1c(-c2ccc3c(c2)cc(CN2CCC(O)C2)n3C)[nH]c(=O)c(C(=O)O)c1O (stereo not shown) [Cpd 178, 5-ethyl-4-hydroxy-6-(2-((3-hydroxypyrrolidin-1-yl)methyl)-1-methyl-1H-indol-5-yl)-2-oxo-1,2-dihydropyridine-3-carboxylic acid]	12.5 to 150 (≈ 30.4 to 365 µM)	12.5 to 150 (≈ 30.4 to 365 µM)	< 1	12.5 to 150 (≈ 30.4 to 365 µM)	12.5 to 150 (≈ 30.4 to 365 µM)	3.5 to 12.5 (≈ 8.51 to 30.4 µM)	3.5 to 12.5 (≈ 8.51 to 30.4 µM)	1 to 3.5 (≈ 2.43 to 8.51 µM)	3.5 to 12.5 (≈ 8.51 to 30.4 µM)	< 1	3.5 to 12.5 (≈ 8.51 to 30.4 µM)	–
CCc1c(-c2ccc3c(c2)cc2n3CCC2N2CCCC2)[nH]c(=O)c(C(=O)O)c1O (stereo not shown) [Cpd 304, 5-ethyl-4-hydroxy-2-oxo-6-(1-(pyrrolidin-1-yl)-2,3-dihydro-1H-pyrrolo[1,2-a]indol-7-yl)-1,2-dihydropyridine-3-carboxylic acid]	12.5 to 150 (≈ 30.7 to 368 µM)	12.5 to 150 (≈ 30.7 to 368 µM)	< 1	12.5 to 150 (≈ 30.7 to 368 µM)	12.5 to 150 (≈ 30.7 to 368 µM)	3.5 to 12.5 (≈ 8.59 to 30.7 µM)	12.5 to 150 (≈ 30.7 to 368 µM)	1 to 3.5 (≈ 2.45 to 8.59 µM)	3.5 to 12.5 (≈ 8.59 to 30.7 µM)	< 1	12.5 to 150 (≈ 30.7 to 368 µM)	–
